In the NIST ThermoML archive (doi:10.1021/je901092b):

Conditions: 101.33 kPa, Liquid; for mass density: Pycnometric method

CCCCn1cc[n+](C)c1.[I-] [1-butyl-3-methylimidazolium iodide]
Conditions | mass density [kg/m3] | viscosity [mPa·s]
299.15 K | 1434 | 593.68
304.15 K | 1432 | 442.64
308.15 K | 1430 | 336.95
313.15 K | 1426 | 227.98
318.15 K | 1422 | 173.86
323.15 K | 1418 | 134.23
328.15 K | 1414 | 105.34
333.15 K | 1406 | 81.51
338.15 K | 1400 | 65.85
343.15 K | 1398 | 53.43
348.15 K | 1396 | 44.68
353.15 K | 1394 | 36.52
358.15 K | 1392 | 30.4
363.15 K | 1388 | 26.11
368.15 K | 1386 | 22.5
373.15 K | 1382 | 20.43
378.15 K | 1376 | 18.1
383.15 K | 1370 | 15.22
388.15 K | 1360 | 13.11

CCCCCCn1cc[n+](C)c1.[I-] [1-hexyl-3-methylimidazolium iodide]
Conditions | mass density [kg/m3] | viscosity [mPa·s]
305.15 K | 1326 | 809.79
309.15 K | 1324 | 600.07
314.15 K | 1322 | 432.98
318.15 K | 1320 | 334.25
323.15 K | 1318 | 245.55
328.15 K | 1316 | 190.14
333.15 K | 1314 | 146.47
338.15 K | 1312 | 116.13
343.15 K | 1310 | 88.04
348.15 K | 1308 | 73.85
353.15 K | 1306 | 60.63
359.15 K | 1304 | 48.47
363.15 K | 1302 | 42.23
373.15 K | 1298 | 30.45
378.15 K | 1296 | 26.62
383.15 K | 1294 | 23.19
388.15 K | 1292 | 20.3

CCCCCCCC[n+]1ccn(C)c1.[I-] [1-methyl-3-octyl-1H-imidazolium iodide]
Conditions | mass density [kg/m3] | viscosity [mPa·s]
300.15 K | 1258 | 1306.3
303.15 K | 1254 | 981.11
308.15 K | 1250 | 726.71
313.15 K | 1246 | 524.3
319.15 K | 1242 | 404.37
323.15 K | 1240 | 296.66
328.15 K | 1234 | 229.09
333.15 K | 1230 | 174.35
338.15 K | 1228 | 138.53
343.15 K | 1224 | 104.81
348.15 K | 1218 | 89.02
353.15 K | 1212 | 73.17
358.15 K | 1210 | 58.41
363.15 K | 1206 | 49.6
368.15 K | 1204 | 43.21
373.15 K | 1200 | 35.57
378.15 K | 1196 | 31.43
